US20260335388A1, “COMBINATION THERAPIES WITH ONCOLYTIC ADENOVIRUS AND TOPOISOMERASE I INHIBITORS OR PRODRUGS THEREOF” (priority 2022, published 2026)
Read-outs that look alike come from different tables or passages of the source.

Experiments:
RBT-7 xenografts = test: Ocular survival, RBT-7 intraocular xenografts; assay type: in vivo, mouse; settings: control 35 days; combination P<0.0001 (FIG. 20C)
Procedure: Antitumor activity in retinoblastoma. For orthotopic intraocular engraftments 2×10^5 retinoblastoma cells were inoculated per eye, in 2 μL matrigel (Pascual-Pasto et al., 2016). To obtain s.c. xenografts 10^6 cells were injected in 25 μl matrigel. For ocular tumors, treatments were started at day 8 after inoculation (when tumors were appreciable by fundus examination). For s.c. tumors, treatments were started when volumes achieved 100-300 mm^3 (day 1). After treatments, the survivors were followed up until endpoint and the median survival of each group was calculated, as described previously (Mandigo et al., 2022; Rodríguez-García et al., 2015).
In a second experiment, the sequence of administration of one injection of VCN-01 and one 5-day cycle of topotecan was addressed. Mice with intraocular tumors (Y79 or RBT-7) received either topotecan 0.6 mg/kg, i.p. on days 8-12, one intravitreal injection of VCN-01 (3×10^8 vp) on day 8, or the combination of topotecan and VCN-01. Y79-bearing mice also received a switched treatment sequence, with VCN-01 on day 12, after the last dose of topotecan.

[1] = Accumulation of topotecan in VCN-01-infected retinoblastoma; assay type: in vivo, mouse
Description: Accumulation of topotecan in VCN-01-infected retinoblastoma. The Animal Experimental Ethics Committee at the University of Barcelona (animal protocol number 482/18) approved animal experimentation. Retinoblastoma cells in the eyes of athymic nude mice (Envigo, Barcelona, Spain), as previously described (Pascual-Pasto et al., 2016). After 14 days, VCN-01 (3×10^9 vp/eye) was inoculated. After another 14 days, s.c. osmotic pumps loaded with topotecan were implanted to achieve constant topotecan in plasma, as described previously (Pascual-Pasto et al., “Increased delivery of chemotherapy to the vitreous by inhibition of the blood-retinal barrier,” J Control Release 2017; 264:34-44), and collected tumor samples for analysis of topotecan.
Animal experiments were carried out following institutional and European guidelines (EU Directive 2010/63/EU) and the ARRIVE guidelines ([…]). Retinoblastoma cells (2×10^5) were inoculated into the posterior segment of the eye of six week old athymic nude mice using a dull 33G needle, as previously described (Giani et al., 1994). […] Samples were analyzed by high performance liquid chromatography (HLPC) as described previously ([…]).

Y79 retinoblastoma cells = test: cells; assay type: cell-based
[2] = cited from earlier work
E1a = test: Immunoblot of E1a / E2F-1 in VCN-01-infected Y79 cells with further chemotherapeutics; assay type: cell-based
Procedure: 2 million Y79 retinoblastoma cells were infected with 50 MOIs of VCN-01. […] Etoposide is topoisomerase 2 inhibitor.
In all experiments, 6-well culture plates containing 2×10^6 cells were used. […] The experiments were controlled by adding culture medium instead of the second treatment. […] The analyses were expanded to other chemotherapeutic agents including hydroxyurea ([…]), etoposide (2 μM), irinotecan (10 μM) or SN-38 (1 μM).
Near-infrared labeled secondary antibodies (Odyssey CLx, LI-COR Inc. Bad Homburg, Germany) were used for detection.

[3] = non-tumor bearing pigs, cited from earlier work
[4] = test system: HSJD-NB-005 neuroblastoma; test: Antitumor activity in neuroblastoma PDX HSJD-NB-005; assay type: in vivo, mouse; settings: single treatment (FIG. 24D,F)
Procedure: PDX of neuroblastoma (pediatric solid tumor) were implanted subcutaneously into athymic nude mice. Tumor model was HSJD-NB-005. Upon engraftment (tumor volumes ranging 100-500 mm^3), treatments were started. The activity of topotecan vs. irinotecan in combination with VCN-01 was evaluated. The following groups of mice were included in the study, with an n of 6 tumors per group: • Group 1: no treatment • Group 2: topotecan i.p. at 0.6 mg/kg, Day 1-5 • Group 3: irinotecan i.p. at 10 mg/kg, Day 1-5 • Group 4: VCN-01 i.t at 3E9 vp/tumor, Day 1 • Group 5: VCN-01 i.t at 3E9 vp/tumor, Day 1 (morning)+topotecan i.p. at 0.6 mg/kg, Day 1-5 • Group 6: VCN-01 i.t at 3E9 vp/tumor, Day 1 (morning)+irinotecan i.p. at 10 mg/kg, Day 1-5
Antitumor activity in extracranial pediatric solid tumors. 5-10 mm^3 fresh fragments of Ewing sarcoma or neuroblastoma PDX were implanted in both flanks of mice. Upon s.c. engraftment (tumor volume 150-200 mm^3), mice received topotecan (0.6 mg/kg, i.p., days 1-5), VCN-01 (3×10^9 vp in 20 µL vehicle, intratumoral, day 1), or the combination. In two additional groups, an alternative topoisomerase 1 inhibitor, irinotecan (10 mg/kg, i.p., on days 1-5) we used in place of topotecan. Upon completion of treatments, tumor volumes were followed until endpoint (1500 mm^3), or until day 80.

[5] = test system: HSJD-RBT-5 retinoblastoma cells; test: cells; assay type: cell-based; settings: Homo sapiens
[6] = read-out: IC50, Topotecan single agent
[7] = read-out: IC50, Topotecan with VCN-01 (10 MOI)

Structure (SMILES): CC[C@@]1(O)C(=O)OCc2c1cc1n(c2=O)Cc2cc3c(CN(C)C)c(O)ccc3nc2-1 [Topotecan, topotecan]
- median survival (RBT-7 xenografts): 39 days
- biodistribution of topotecan in intraocular tumors ([1]; concomitant treatment with VCN-01 (FIG. 21)): did not change
- concentration at 6 h ([1]; mouse, in vivo, sc, 25 ug/h, osmotic pump, 25 μg/h, athymic nude mice, read-out: topotecan plasma level at steady state): ~100 ng/mL
- IC50 (Y79 retinoblastoma cells; [6]): 30.3 nM
- IC50 (Y79 retinoblastoma cells; [7]): 893 nM
- ocular toxicity ([2]; all routes of administration): minimal
- passage to the vitreous ([2]; given intravenously and intraarterially): favorable passage to the vitreous
- expression of VCN-01 proteins (E1a) (E1a; VCN-01 50 MOI, drug added at 24 h, lysis at 48 h (FIG. 7)): similarly to topotecan
- expression of E2F-1 and E1A (E1a; Y79 cells pre-exposed to VCN-01 (FIG. 13H)): increased the expression of E2F-1 and E1A similarly to topotecan
- systemic exposure, OAC versus IV [3]: systemic exposure was comparable between the two routes
- topotecan concentration in retina, OAC versus IV ([3]; retina, after OAC than after IV): 146 times higher
- topotecan concentration in vitreous, OAC versus IV ([3]; vitreous, after OAC than after IV): 243 times higher
- response of xenograft to single treatment [4]: highly resistant
- IC50 [5, 6]: 87.9 nM
- IC50 [5, 7]: 586 nM
